Measurements taken from patent US11053204B2, “Pyrimidinyloxy benzene derivatives as herbicides” (FMC Corporation, priority 2015, dated 2021).

Tests used:
Type in all cases: in vivo
[1] = system: ragweed (common ragweed, Ambrosia elatior); test: Test C preemergence, plant response rating; details: Preemergence
Summary of the method: (§1)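 Visual injury score, 0 = no effect, 100 = complete control, assigned against untreated controls after 13 to 15 d in the greenhouse. Compounds were applied in a surfactant-containing non-phytotoxic solvent mix, preemergence to seeded loam/sand or silt loam soil, or postemergence to 1- to 4-leaf plants (2 to 18 cm).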

[2] = system: velvetleaf (Abutilon theophrasti); test: Test C preemergence, plant response rating; details: Preemergence
Summary of the method: as §1

[3] = system: lambsquarters (Chenopodium album); test: Test C preemergence, plant response rating; details: Preemergence
Summary of the method: as §1

[4] = system: nutsedge, yellow (yellow nutsedge, Cyperus esculentus); test: Test C preemergence, plant response rating; details: Preemergence
Summary of the method: as §1

[5] = system: ryegrass, Italian (Italian ryegrass, Lolium multiflorum); test: Test C preemergence, plant response rating; details: Preemergence
Summary of the method: as §1

[6] = system: blackgrass (Alopecurus myosuroides); test: Test C preemergence, plant response rating; details: Preemergence
Summary of the method: as §1

[7] = system: waterhemp (common waterhemp, Amaranthus rudis); test: Test C preemergence, plant response rating; details: Preemergence
Summary of the method: as §1

[8] = system: oilseed rape (Brassica napus); test: Test C preemergence, plant response rating; details: Preemergence
Summary of the method: as §1

[9] = system: morningglory (Ipomoea coccinea); test: Test C preemergence, plant response rating; details: Preemergence
Summary of the method: as §1

[10] = system: wheat (winter wheat, Triticum aestivum); test: Test C preemergence, plant response rating; details: Preemergence
Summary of the method: as §1

soybean (Glycine max) = test: Test C preemergence, plant response rating; details: Preemergence
Summary of the method: as §1

[11] = system: crabgrass, large (large crabgrass, Digitaria sanguinalis); test: Test C preemergence, plant response rating; details: Preemergence
Summary of the method: as §1

[12] = system: foxtail, giant (giant foxtail, Setaria faberii); test: Test C preemergence, plant response rating; details: Preemergence
Summary of the method: as §1

corn (Zea mays) = test: Test C preemergence, plant response rating; details: Preemergence
Summary of the method: as §1

[13] = system: ragweed (common ragweed, Ambrosia elatior); test: Test A preemergence, visual injury rating; details: for Plant response rating, Ragweed: 31 g ai/ha, 0 to 100 scale, 0 no effect, 100 complete control; for Ragweed plant response rating: 125 g ai/ha, 0 to 100 scale (0 no effect, 100 complete control)
Summary of the method: (§2)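 Injury scores run from 0, no effect, to 100, complete control, judged by eye against untreated plants roughly 10 days after treatment. Chemicals carried a surfactant in a non-phytotoxic solvent and went onto loam–sand soil preemergence or onto one- to two-leaf seedlings postemergence.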

[14] = system: giant foxtail (Setaria faberii); test: Test A preemergence, visual injury rating; details: for Plant response rating, Foxtail, Giant: 31 g ai/ha, 0 to 100 scale, 0 no effect, 100 complete control; for Foxtail, Giant plant response rating: 125 g ai/ha, 0 to 100 scale (0 no effect, 100 complete control)
Summary of the method: as §2

[15] = system: pigweed (Amaranthus retroflexus); test: Test A preemergence, visual injury rating; details: for Plant response rating, Pigweed: 31 g ai/ha, 0 to 100 scale, 0 no effect, 100 complete control; for Pigweed plant response rating: 125 g ai/ha, 0 to 100 scale (0 no effect, 100 complete control)
Summary of the method: as §2

[16] = system: Italian ryegrass (Lolium multiflorum); test: Test A preemergence, visual injury rating; details: for Plant response rating, Ryegrass, Italian: 31 g ai/ha, 0 to 100 scale, 0 no effect, 100 complete control; for Ryegrass, Italian plant response rating: 125 g ai/ha, 0 to 100 scale (0 no effect, 100 complete control)
Summary of the method: as §2

O=C(CCCCC(F)(F)F)c1c(Br)cccc1Oc1ncc(Cl)cn1 [Compound 82]
Plant response rating, Ragweed ([1]; 125 g ai/ha, scale of 0 to 100): 30
Plant response rating, Ragweed ([1]; 31 g ai/ha, scale 0 to 100): 0
Plant response rating, Ragweed ([1]; 62 g ai/ha, scale 0 to 100): 20
Plant response rating, Velvetleaf ([2]; 125 g ai/ha, scale of 0 to 100): 10
Plant response rating, Velvetleaf ([2]; 31 g ai/ha, scale 0 to 100): 0
Plant response rating, Velvetleaf ([2]; 62 g ai/ha, scale 0 to 100): 0
Plant response rating, Lambsquarters ([3]; 125 g ai/ha, scale of 0 to 100): 70
Plant response rating, Lambsquarters ([3]; 31 g ai/ha, scale 0 to 100): 20
Plant response rating, Lambsquarters ([3]; 62 g ai/ha, scale 0 to 100): 20
Plant response rating, Nutsedge, Yellow ([4]; 125 g ai/ha, scale of 0 to 100): 0
Plant response rating, Nutsedge, Yellow ([4]; 31 g ai/ha, scale 0 to 100): 0
Plant response rating, Nutsedge, Yellow ([4]; 62 g ai/ha, scale 0 to 100): 0
Plant response rating, Ryegrass, Italian ([5]; 125 g ai/ha, scale of 0 to 100): 5
Plant response rating, Ryegrass, Italian ([5]; 31 g ai/ha, scale 0 to 100): 0
Plant response rating, Ryegrass, Italian ([5]; 62 g ai/ha, scale 0 to 100): 5
Plant response rating, Blackgrass ([6]; 125 g ai/ha, scale of 0 to 100): 5
Plant response rating, Blackgrass ([6]; 16 g ai/ha, scale 0 to 100): 0
Plant response rating, Blackgrass ([6]; 31 g ai/ha, scale 0 to 100): 0
Plant response rating, Blackgrass ([6]; 62 g ai/ha, scale 0 to 100): 5
Plant response rating, Waterhemp ([7]; 125 g ai/ha, scale of 0 to 100): 100
Plant response rating, Waterhemp ([7]; 31 g ai/ha, scale 0 to 100): 50
Plant response rating, Waterhemp ([7]; 62 g ai/ha, scale 0 to 100): 100
Plant response rating, Oilseed Rape ([8]; 125 g ai/ha, scale of 0 to 100): 50
Plant response rating, Oilseed Rape ([8]; 31 g ai/ha, scale 0 to 100): 0
Plant response rating, Oilseed Rape ([8]; 62 g ai/ha, scale 0 to 100): 5
Plant response rating, Morningglory ([9]; 125 g ai/ha, scale of 0 to 100): 10
Plant response rating, Morningglory ([9]; 31 g ai/ha, scale 0 to 100): 0
Plant response rating, Morningglory ([9]; 62 g ai/ha, scale 0 to 100): 0
Plant response rating, Wheat ([10]; 125 g ai/ha, scale of 0 to 100): 0
Plant response rating, Wheat ([10]; 31 g ai/ha, scale 0 to 100): 0
Plant response rating, Wheat ([10]; 62 g ai/ha, scale 0 to 100): 0
Plant response rating, Soybean (soybean (Glycine max); 125 g ai/ha, scale of 0 to 100): 0
Plant response rating, Soybean (soybean (Glycine max); 31 g ai/ha, scale 0 to 100): 0
Plant response rating, Soybean (soybean (Glycine max); 62 g ai/ha, scale 0 to 100): 0
Plant response rating, Crabgrass, Large ([11]; 125 g ai/ha, scale of 0 to 100): 98
Plant response rating, Crabgrass, Large ([11]; 16 g ai/ha, scale 0 to 100): 60
Plant response rating, Crabgrass, Large ([11]; 31 g ai/ha, scale 0 to 100): 70
Plant response rating, Crabgrass, Large ([11]; 62 g ai/ha, scale 0 to 100): 90
Plant response rating, Foxtail, Giant ([12]; 125 g ai/ha, scale of 0 to 100): 98
Plant response rating, Foxtail, Giant ([12]; 31 g ai/ha, scale 0 to 100): 80
Plant response rating, Foxtail, Giant ([12]; 62 g ai/ha, scale 0 to 100): 90
Plant response rating, Corn (corn (Zea mays); 125 g ai/ha, scale of 0 to 100): 5
Plant response rating, Corn (corn (Zea mays); 16 g ai/ha, scale 0 to 100): 0
Plant response rating, Corn (corn (Zea mays); 31 g ai/ha, scale 0 to 100): 0
Plant response rating, Corn (corn (Zea mays); 62 g ai/ha, scale 0 to 100): 0
Plant response rating, Ragweed [13]: 0
Ragweed plant response rating [13]: 60
Plant response rating, Foxtail, Giant [14]: 90
Foxtail, Giant plant response rating [14]: 100
Plant response rating, Pigweed [15]: 90
Pigweed plant response rating [15]: 100
Plant response rating, Ryegrass, Italian [16]: 0
Ryegrass, Italian plant response rating [16]: 80

FC(F)(F)CCCc1c(Br)cccc1Oc1ncc(Cl)cn1 [Compound 89]
Plant response rating, Ragweed ([1]; 125 g ai/ha, scale of 0 to 100): 50
Plant response rating, Ragweed ([1]; 31 g ai/ha, scale 0 to 100): 0
Plant response rating, Ragweed ([1]; 62 g ai/ha, scale 0 to 100): 5
Plant response rating, Velvetleaf ([2]; 125 g ai/ha, scale of 0 to 100): 60
Plant response rating, Velvetleaf ([2]; 31 g ai/ha, scale 0 to 100): 20
Plant response rating, Velvetleaf ([2]; 62 g ai/ha, scale 0 to 100): 25
Plant response rating, Lambsquarters ([3]; 125 g ai/ha, scale of 0 to 100): 65
Plant response rating, Lambsquarters ([3]; 31 g ai/ha, scale 0 to 100): 0
Plant response rating, Lambsquarters ([3]; 62 g ai/ha, scale 0 to 100): 0
Plant response rating, Nutsedge, Yellow ([4]; 125 g ai/ha, scale of 0 to 100): 0
Plant response rating, Nutsedge, Yellow ([4]; 31 g ai/ha, scale 0 to 100): 0
Plant response rating, Nutsedge, Yellow ([4]; 62 g ai/ha, scale 0 to 100): 0
Plant response rating, Ryegrass, Italian ([5]; 125 g ai/ha, scale of 0 to 100): 40
Plant response rating, Ryegrass, Italian ([5]; 31 g ai/ha, scale 0 to 100): 5
Plant response rating, Ryegrass, Italian ([5]; 62 g ai/ha, scale 0 to 100): 15
Plant response rating, Blackgrass ([6]; 125 g ai/ha, scale of 0 to 100): 90
Plant response rating, Blackgrass ([6]; 16 g ai/ha, scale 0 to 100): 5
Plant response rating, Blackgrass ([6]; 31 g ai/ha, scale 0 to 100): 15
Plant response rating, Blackgrass ([6]; 62 g ai/ha, scale 0 to 100): 85
Plant response rating, Waterhemp ([7]; 125 g ai/ha, scale of 0 to 100): 100
Plant response rating, Waterhemp ([7]; 31 g ai/ha, scale 0 to 100): 85
Plant response rating, Waterhemp ([7]; 62 g ai/ha, scale 0 to 100): 100
Plant response rating, Oilseed Rape ([8]; 125 g ai/ha, scale of 0 to 100): 15
Plant response rating, Oilseed Rape ([8]; 31 g ai/ha, scale 0 to 100): 0
Plant response rating, Oilseed Rape ([8]; 62 g ai/ha, scale 0 to 100): 0
Plant response rating, Morningglory ([9]; 125 g ai/ha, scale of 0 to 100): 20
Plant response rating, Morningglory ([9]; 31 g ai/ha, scale 0 to 100): 0
Plant response rating, Morningglory ([9]; 62 g ai/ha, scale 0 to 100): 5
Plant response rating, Wheat ([10]; 125 g ai/ha, scale of 0 to 100): 5
Plant response rating, Wheat ([10]; 31 g ai/ha, scale 0 to 100): 0
Plant response rating, Wheat ([10]; 62 g ai/ha, scale 0 to 100): 0
Plant response rating, Soybean (soybean (Glycine max); 125 g ai/ha, scale of 0 to 100): 10
Plant response rating, Soybean (soybean (Glycine max); 31 g ai/ha, scale 0 to 100): 5
Plant response rating, Soybean (soybean (Glycine max); 62 g ai/ha, scale 0 to 100): 5
Plant response rating, Crabgrass, Large ([11]; 125 g ai/ha, scale of 0 to 100): 98
Plant response rating, Crabgrass, Large ([11]; 16 g ai/ha, scale 0 to 100): 75
Plant response rating, Crabgrass, Large ([11]; 31 g ai/ha, scale 0 to 100): 98
Plant response rating, Crabgrass, Large ([11]; 62 g ai/ha, scale 0 to 100): 100
Plant response rating, Foxtail, Giant ([12]; 125 g ai/ha, scale of 0 to 100): 85
Plant response rating, Foxtail, Giant ([12]; 31 g ai/ha, scale 0 to 100): 5
Plant response rating, Foxtail, Giant ([12]; 62 g ai/ha, scale 0 to 100): 60
Plant response rating, Corn (corn (Zea mays); 125 g ai/ha, scale of 0 to 100): 10
Plant response rating, Corn (corn (Zea mays); 16 g ai/ha, scale 0 to 100): 0
Plant response rating, Corn (corn (Zea mays); 31 g ai/ha, scale 0 to 100): 0
Plant response rating, Corn (corn (Zea mays); 62 g ai/ha, scale 0 to 100): 0
Plant response rating, Ragweed [13]: 0
Ragweed plant response rating [13]: 0
Plant response rating, Foxtail, Giant [14]: 10
Foxtail, Giant plant response rating [14]: 50
Plant response rating, Pigweed [15]: 10
Pigweed plant response rating [15]: 100
Plant response rating, Ryegrass, Italian [16]: 0
Ryegrass, Italian plant response rating [16]: 20
